Results taken from patent publication US20100173873A1, “TREATMENT OF METASTASIZED TUMORS” (Novartis Vaccines and Diagnostics, Inc., priority 2005, published 2010).
Where “and” joins values, the source holds several entries; their conditions need not be identical. Equal values may be shown once. Entries after “also recorded” stand apart in the source; their conditions may differ.

Assays:
[1] = target: PI-3K; assay: In vitro kinase assay, PI-3K; type: biochemical; conditions: RTK table
[2] = target: Akt⅓; assay: In vitro kinase assay, Akt; type: biochemical; conditions: RTK table
[3] = target: Raf; assay: In vitro kinase assay, Raf; type: biochemical; conditions: RTK table
[4] = target: ERK-½; assay: In vitro kinase assay, ERK; type: biochemical; conditions: RTK table
[5] = system: VEGF production in MV4;11 cells; assay: VEGF ELISA on MV4;11 culture supernatants; type: cell-based; conditions: Homo sapiens; MV4;11, 48 hours; read-out: EC50 inhibition of VEGF production
[6] = system: pFLT3 in MV4;11 tumors; assay: Target modulation in vivo, pFLT3 in MV4;11 tumors; parameters: species or system SCID-NOD mice; conditions: 10 mg/kg/d p.o., 48 hours post dose
[7] = system: MV4;11 tumors; assay: Subcutaneous MV4;11 xenograft model; type: in vivo, SCID-NOD mice
[8] = system: RS4;11 tumors; assay: Subcutaneous RS4;11 xenograft model; type: in vivo, SCID-NOD mice; conditions: RS4;11 s.c., 10-150 mg/kg/d p.o.
Procedure: . Animals received sterile rodent chow and water ad libitum and were housed in sterile filter-top cages with 12 hour light/dark cycles. All experiments were under the guidelines of the Association for Assessment and Accreditation of Laboratory Animal Care International.
Cells (5×10^6 cells/mouse) were reconstituted with 50% Matrigel (Becton Dickinson) and implanted s.c. into the right flank of SCID-NOD mice. Treatments were initiated when tumors were 200-1000 mm^3, as outlined in specific study designs. Mice were randomly assigned into cohorts (typically 10 mice/group for efficacy studies and 3-5 mice/group for pharmacodynamic (PD) studies). Compound 1 was administered as a solution via oral gavage. […] . […] Response rates were defined as complete responses CR (no palpable tumor) or partial responses PR (50-99% shrinkage) compared to tumor volume at treatment initiation.

[9] = system: MV4;11 cells disseminated to bone marrow; assay: Intravenous MV4;11 bone marrow engraftment model; type: in vivo, SCID-NOD mice
Procedure: For processing of bone marrow (BM) cells from the mouse MV4;11 engraftment model, femurs were purged with cold saline and red blood cells lysed with FACS lysis buffer (Becton Dickinson). Percent engraftment of human leukemic cells in mouse BM was determined by staining with anti-human HLA-A,B,C-FITC (vs. isotype-matched antibody-FITC control) (BD Pharmingen).
[…]. […] Mice were monitored daily and were euthanized when moribund or early signs of loss of hind limb motility. Increased life span (ILS) of treated mice was calculated as a percent increase in median survival time (MST) vs. vehicle treated control mice.
[…]. In this model, MV4;11 cells disseminate to the bone marrow (BM), pathologically mimicking a disease pattern similar to human leukemia. […]. Histological analyses and flow cytometry were used to quantify the % engraftment of MV4;11 cells in BM. In flow cytometric analyses, human MV4;11 cells were identified in mouse BM with an anti-human HLA-A,B,C antibody which binds to an epitope on human MHCI. In vehicle-treated mice, approximately 2-19% of total isolated BM cells consisted of engrafted MV4;11 cells (day 51,). This was also corroborated by immunohistochemistry with an antibody to human mitochondria which stains MV4;11 cells identifying the human cells in the mouse BM matrix. […].

[10] = system: 4T1 murine breast tumor; assay: 4T1 murine breast tumor model (primary tumor, liver and lung metastases); type: in vivo, BALB/c mice; conditions: for Liver # of Metastases Mean ± SD / Lung # of Metastases Mean ± SD: after 17 days of dosing
[11] = system: MV4;11 tumors; conditions: 30 mg/kg/d
[12] = system: pSTAT5 in MV4;11 cells; assay: pSTAT5 in MV4;11 cells (flow cytometry, Western blot); conditions: Homo sapiens, MV4-11, 3 h, read-out: Inhibition of pSTAT5
[13] = MV4;11 s.c., 30 mg/kg/d p.o., dose-response study

## CN1CCN(c2ccc3nc(-c4c(N)c5c(F)cccc5[nH]c4=O)[nH]c3c2)CC1 [Compound 1, 4-Amino-5-fluoro-3-[6-(4-methylpiperazin-1-yl)-1H-benzimidazol-2-yl]quinolin-2(1H)-one]
[1]
  IC50: > 10 µM
[2]
  IC50: > 10 µM
[3]
  IC50: > 10 µM
[4]
  IC50: > 10 µM
[5]
  EC50: 0.001 to 0.01 µM
[6]
  Phospho-FLT3 in tumors: returned closer to baseline levels
[7]; MV4;11 s.c., 30 mg/kg p.o. daily, schedule study (FIG. 4)
  Complete responses (CR): 1
[7]; MV4;11 s.c., 30 mg/kg p.o., intermittent dosage regimens
  Tumor growth inhibition (TGI): > 94%
[7]; [13]
  Complete responses (CR): 1
  Tumor responses: 9/10
[7]; MV4;11 s.c., p.o., FIG. 2
  Doses with significant tumor growth inhibition: > 5 mg/kg/day
[7]; large MV4;11 tumors 300, 500 or 1000 mm^3, 30 mg/kg/d, n=27
  Minor responses or stable: 15%
[7]; large MV4;11 tumors, 30 mg/kg/d for 50 days
  Complete responses durable for 40 days after cessation of dosing: One CR
[7]; tumors staged at 300, 500 or 1000 mm^3, 30 mg/kg/d
  Regression of large MV4;11 tumors: significant regression in all MV4;11 tumors; also recorded: induces regression of large MV4;11 tumors
[8]
  Tumor regressions: no regressions were observed
[9]; 20 mg/kg daily or 7 days on/7 days off
  Survival (Kaplan-Meier, FIG. 6): prolongs survival
[9]; 20 mg/kg p.o. 7 days on/7 days off, 5 cycles
  Median survival time (MST): 118 days
[9]; 20 mg/kg p.o. 7 days on/7 days off, 5 cycles, vs. vehicle
  Increased life span (ILS): 131%
[9]; 20 mg/kg p.o. daily
  Long-term survivors (MST >160 days): 4 mice
[9]; 20 mg/kg p.o. daily, day 23-100
  Median survival time (MST): 134 days
[9]; day 167
  Tumor cells in BM of surviving mice (anti-human mitochondria IHC): no evidence of tumor cells
[10]; 10 mg/kg p.o. once daily
  Mean Tumor Volume day 18: 1798 mm^3
  Treated/Control day 18: 0.80
[10]; 10 mg/kg p.o. once daily, d 11
  Max % Inhibition (study day), primary tumor growth: 32% and 32 (d 11) %
[10]; 10 mg/kg
  Liver # of Metastases Mean ± SD: 22 ± 32
  Lung # of Metastases Mean ± SD: 36 ± 32
[10]; 30 mg/kg p.o. once daily
  Mean Tumor Volume day 18: 1246 mm^3
  Treated/Control day 18: 0.55
[10]; 30 mg/kg p.o. once daily, d 18
  Max % Inhibition (study day), primary tumor growth: 45% and 45 (d 18) %
[10]; 30 mg/kg
  Liver # of Metastases Mean ± SD: 3 ± 4
  Lung # of Metastases Mean ± SD: 26 ± 26
[10]; 60 mg/kg p.o. once daily
  Mean Tumor Volume day 18: 1248 mm^3
  Treated/Control day 18: 0.56
[10]; 60 mg/kg p.o. once daily, d 11
  Max % Inhibition (study day), primary tumor growth: 50% and 50 (d 11) %
[10]; 60 mg/kg
  Liver # of Metastases Mean ± SD: 1 ± 1
  Lung # of Metastases Mean ± SD: 24 ± 11
[10]; 100 mg/kg p.o. once daily
  Mean Tumor Volume day 18: 624 mm^3
  Treated/Control day 18: 0.28
[10]; 100 mg/kg p.o. once daily, d 14
  Max % Inhibition (study day), primary tumor growth: 74% and 74 (d 14) %
[10]; 100 mg/kg
  Liver # of Metastases Mean ± SD: 4 ± 13
  Lung # of Metastases Mean ± SD: 24 ± 30
[10]; 150 mg/kg p.o. once daily
  Mean Tumor Volume day 18: 402 mm^3
  Treated/Control day 18: 0.18
[10]; 150 mg/kg p.o. once daily, d 18
  Max % Inhibition (study day), primary tumor growth: 82% and 82 (d 18) %
[10]; 150 mg/kg
  Liver # of Metastases Mean ± SD: 0 ± 0
  Lung # of Metastases Mean ± SD: 2 ± 3
[10]; 30, 60 and 100 mg/kg treatments
  Reduction of number of liver tumor nodules versus controls: ≥ 77%
[11]; 5-day dosing period
  Phospho-ERK immunohistochemical staining: significantly lowered
[11]; after 5 doses
  Ki67 staining (proliferation): reduced Ki67 staining
[11]; day 5
  Apoptosis (activated caspase-3, cleaved PARP staining): increased activated caspase-3 and cleaved PARP staining
[12]
  inhibition at 0.1 µM: > 50%
